Test results taken from US11807835B2, “Detergent compositions containing a stabilized enzyme by phosphonates” (ECOLAB USA INC., priority 2016, dated 2023).

Test system: amylase
Assay: Amylase activity retention in detergent use solution (4000 ppm, 5 GPG water; ethylidene substrate EPS, HEPES buffer pH 8.0)
Type: biochemical
Procedure: The enzyme activities in the detergents with different phosphonate levels were tested at 4000 ppm in 5 grains per gallon (GPG) water at 120° F. with various time points collected up to 4 hours, after a use solution was generated from the detergent composition. During the tests, the samples at different time points were collected and immediately frozen in an acetone/dry ice bath and stored in −80° C. before the activity of the enzyme was evaluated. For the use of such an assay, t=0 min was the reference point for 100% enzyme activity.
Assays of enzyme activity in formulations (% retention) were conducted to simulate a presoak condition in a beaker using the chemistry, temperature, and pH conditions relevant to manual warewash or presoak applications. Enzyme activity is an indicator of the stability of the enzyme in the detergent, specifically in an aqueous use solution within a sump (which is under conditions of high pH, temperature and dilution).
Enzyme activity under presoak or manual warewash conditions was traced quantitatively using a standard protease assay. Samples were prepared under bench top conditions, whereby the use solution from a detergent composition or detergent was obtained and maintained at a presoak or manual warewash temperature in a stirring water bath. After the time course for assessing enzyme stability is initiated, aliquots were taken at various time points and flash-frozen. A time=0 sample was prepared for each series by dissolving the detergent formulation at room temperature, mixing thoroughly, and flash freezing. Samples were thawed and diluted as necessary in an assay buffer usually for use in the protease assay. A glycine buffer at pH 9.0 is used here. The assay monitored the direct reaction of the protease on a small, commercially available peptidyl substrate, with liberation of the product providing correlation to the active enzyme content. The product was detected using a plate reader with an appreciable dynamic range (upper absorbance limit of the instrument >3.5). Enzyme activity levels were assessed relative to a calibration curve with average values for replicate tests used to map protease stability under presoak or manual warewash use conditions. Enzyme retention at each time point was calculated as the % enzyme activity relative to the time=0 sample.
The analysis by lipase and amylase assay was conducted similarly, except with a different substrate and buffers. For lipase activity, the substrate is p-nitrophenyl valerate, and for amylase, the substrate is an ethylidene substrate (EPS). The buffer used in lipase assay is TRIS (Tris(hydroxymethyl)aminomethane) buffer at pH 8.0, and in amylase assay HEPES (4-(2-hydroxyethyl)-1-piperazineethanesulfonic acid) buffer at pH 8.0.

[1] = base formula, phosphonate 0.3 wt-%, use solution at 120° F., time 0 min
[2] = base formula, phosphonate 0.3 wt-%, use solution at 120° F., time 5 min
[3] = base formula, phosphonate 0.3 wt-%, use solution at 120° F., time 10 min
[4] = base formula, phosphonate 0.3 wt-%, use solution at 120° F., time 20 min
[5] = base formula, phosphonate 0.3 wt-%, use solution at 120° F., time 40 min
[6] = base formula, phosphonate 0.3 wt-%, use solution at 120° F., time 60 min
[7] = base formula, phosphonate 0.3 wt-%, use solution at 120° F., time 90 min
[8] = base formula, phosphonate 0.3 wt-%, use solution at 120° F., time 120 min
[9] = base formula, phosphonate 0.3 wt-%, use solution at 120° F., time 150 min
[10] = base formula, phosphonate 0.3 wt-%, use solution at 120° F., time 180 min
[11] = base formula, phosphonate 0.3 wt-%, use solution at 120° F., time 210 min
[12] = base formula, phosphonate 0.3 wt-%, use solution at 120° F., time 240 min
[13] = base formula, phosphonate 0.6 wt-%, use solution at 120º F., time 0 min
[14] = base formula, phosphonate 0.6 wt-%, use solution at 120º F., time 5 min
[15] = base formula, phosphonate 0.6 wt-%, use solution at 120º F., time 10 min
[16] = base formula, phosphonate 0.6 wt-%, use solution at 120º F., time 20 min
[17] = base formula, phosphonate 0.6 wt-%, use solution at 120º F., time 40 min
[18] = base formula, phosphonate 0.6 wt-%, use solution at 120º F., time 60 min
[19] = base formula, phosphonate 0.6 wt-%, use solution at 120º F., time 90 min
[20] = base formula, phosphonate 0.6 wt-%, use solution at 120º F., time 120 min
[21] = base formula, phosphonate 0.6 wt-%, use solution at 120º F., time 150 min
[22] = base formula, phosphonate 0.6 wt-%, use solution at 120º F., time 180 min
[23] = base formula, phosphonate 0.6 wt-%, use solution at 120º F., time 210 min
[24] = base formula, phosphonate 0.6 wt-%, use solution at 120º F., time 240 min
[25] = base formula, phosphonate at 0.1% elemental phosphorus level, use solution at 120º F., time 0 min
[26] = base formula, phosphonate at 0.1% elemental phosphorus level, use solution at 120º F., time 5 min
[27] = base formula, phosphonate at 0.1% elemental phosphorus level, use solution at 120º F., time 10 min
[28] = base formula, phosphonate at 0.1% elemental phosphorus level, use solution at 120º F., time 20 min
[29] = base formula, phosphonate at 0.1% elemental phosphorus level, use solution at 120º F., time 40 min
[30] = base formula, phosphonate at 0.1% elemental phosphorus level, use solution at 120º F., time 60 min
[31] = base formula, phosphonate at 0.1% elemental phosphorus level, use solution at 120º F., time 90 min
[32] = base formula, phosphonate at 0.1% elemental phosphorus level, use solution at 120º F., time 120 min
[33] = base formula, phosphonate at 0.1% elemental phosphorus level, use solution at 120º F., time 150 min
[34] = base formula, phosphonate at 0.1% elemental phosphorus level, use solution at 120º F., time 180 min
[35] = base formula, phosphonate at 0.1% elemental phosphorus level, use solution at 120º F., time 210 min
[36] = base formula, phosphonate at 0.1% elemental phosphorus level, use solution at 120º F., time 240 min

`NCP(=O)(O)O` [AMPA, Aminomethyl phosphonic acid] was tested, and the “Relative Amylase Enzyme Activity” value [1] was 82.13%, the “Relative Amylase Enzyme Activity” value [2] was 100.00% and the “Relative Amylase Enzyme Activity” value [3] was 95.55%. For the same molecule, the “Relative Amylase Enzyme Activity” value [4] was 101.29%, the “Relative Amylase Enzyme Activity” value [5] was 80.17% and the “Relative Amylase Enzyme Activity” value [6] was 80.10%. For the same molecule, the “Relative Amylase Enzyme Activity” value [7] was 87.43%, the “Relative Amylase Enzyme Activity” value [8] was 92.65% and the “Relative Amylase Enzyme Activity” value [9] was 93.49%. For the same molecule, the “Relative Amylase Enzyme Activity” value [10] was 102.37%, the “Relative Amylase Enzyme Activity” value [11] was 103.78% and the “Relative Amylase Enzyme Activity” value [12] was 102.93%. For the same molecule, the “Relative Amylase Enzyme Activity” value [13] was 100.00%, the “Relative Amylase Enzyme Activity” value [14] was 91.80% and the “Relative Amylase Enzyme Activity” value [15] was 92.54%. For the same molecule, the “Relative Amylase Enzyme Activity” value [16] was 85.05%, the “Relative Amylase Enzyme Activity” value [17] was 94.06% and the “Relative Amylase Enzyme Activity” value [18] was 86.14%. The “Relative Amylase Enzyme Activity” value [19] was 90.32%, the “Relative Amylase Enzyme Activity” value [20] was 93.67% and the “Relative Amylase Enzyme Activity” value [21] was 92.05%. The “Relative Amylase Enzyme Activity” value [22] was 81.43%, the “Relative Amylase Enzyme Activity” value [23] was 94.06% and the “Relative Amylase Enzyme Activity” value [24] was 81.87%. For the same molecule, the “Relative Amylase Enzyme Activity” value [25] was 97.43%, the “Relative Amylase Enzyme Activity” value [26] was 100.00% and the “Relative Amylase Enzyme Activity” value [27] was 102.34%. The “Relative Amylase Enzyme Activity” value [28] was 105.43%, the “Relative Amylase Enzyme Activity” value [29] was 92.18% and the “Relative Amylase Enzyme Activity” value [30] was 92.23%. The “Relative Amylase Enzyme Activity” value [31] was 96.88%, the “Relative Amylase Enzyme Activity” value [32] was 92.96% and the “Relative Amylase Enzyme Activity” value [33] was 103.38%. The “Relative Amylase Enzyme Activity” value [34] was 102.05%, the “Relative Amylase Enzyme Activity” value [35] was 91.32% and the “Relative Amylase Enzyme Activity” value [36] was 99.25%.
In the case of Monoethanolamine phosphonate [MEAP], the “Relative Amylase Enzyme Activity” value [1] is reported as 100.00%, the “Relative Amylase Enzyme Activity” value [2] is reported as 100.65% and the “Relative Amylase Enzyme Activity” value [3] is reported as 102.68%. The “Relative Amylase Enzyme Activity” value [4] was 102.07%, the “Relative Amylase Enzyme Activity” value [5] was 91.36% and the “Relative Amylase Enzyme Activity” value [6] was 93.57%. For the same molecule, the “Relative Amylase Enzyme Activity” value [7] was 94.85%, the “Relative Amylase Enzyme Activity” value [8] was 102.84% and the “Relative Amylase Enzyme Activity” value [9] was 93.01%. The “Relative Amylase Enzyme Activity” value [10] was 96.46%, the “Relative Amylase Enzyme Activity” value [11] was 100.65% and the “Relative Amylase Enzyme Activity” value [12] was 103.40%. For the same molecule, the “Relative Amylase Enzyme Activity” value [13] was 100.00%, the “Relative Amylase Enzyme Activity” value [14] was 95.91% and the “Relative Amylase Enzyme Activity” value [15] was 99.98%. For the same molecule, the “Relative Amylase Enzyme Activity” value [16] was 90.83%, the “Relative Amylase Enzyme Activity” value [17] was 91.75% and the “Relative Amylase Enzyme Activity” value [18] was 97.99%. For the same molecule, the “Relative Amylase Enzyme Activity” value [19] was 99.08%, the “Relative Amylase Enzyme Activity” value [20] was 97.36% and the “Relative Amylase Enzyme Activity” value [21] was 101.28%. The “Relative Amylase Enzyme Activity” value [22] was 94.70%, the “Relative Amylase Enzyme Activity” value [23] was 99.20% and the “Relative Amylase Enzyme Activity” value [24] was 99.15%. The “Relative Amylase Enzyme Activity” value [25] was 100.00%, the “Relative Amylase Enzyme Activity” value [26] was 95.47% and the “Relative Amylase Enzyme Activity” value [27] was 112.93%. The “Relative Amylase Enzyme Activity” value [28] was 117.67%, the “Relative Amylase Enzyme Activity” value [29] was 122.41% and the “Relative Amylase Enzyme Activity” value [30] was 125.44%. The “Relative Amylase Enzyme Activity” value [31] was 127.99%, the “Relative Amylase Enzyme Activity” value [32] was 123.91% and the “Relative Amylase Enzyme Activity” value [33] was 120.88%. The “Relative Amylase Enzyme Activity” value [34] was 113.29%, the “Relative Amylase Enzyme Activity” value [35] was 112.78% and the “Relative Amylase Enzyme Activity” value [36] was 118.72%.
`O=C(O)CCC(CC(=O)O)(C(=O)O)P(=O)(O)O` (stereo not drawn) [PBTC, Phosphonebutane tricarboxylic acid] was tested, and the “Relative Amylase Enzyme Activity” value (All Ash formula, phosphonate 0.3 wt-%, use solution at 120° F., time 0 min) was 98.88%, the “Relative Amylase Enzyme Activity” value (All Ash formula, phosphonate 0.3 wt-%, use solution at 120° F., time 5 min) was 100.00% and the “Relative Amylase Enzyme Activity” value (All Ash formula, phosphonate 0.3 wt-%, use solution at 120° F., time 10 min) was 94.76%. For the same molecule, the “Relative Amylase Enzyme Activity” value (All Ash formula, phosphonate 0.3 wt-%, use solution at 120° F., time 20 min) was 90.04%, the “Relative Amylase Enzyme Activity” value (All Ash formula, phosphonate 0.3 wt-%, use solution at 120° F., time 40 min) was 63.67% and the “Relative Amylase Enzyme Activity” value (All Ash formula, phosphonate 0.3 wt-%, use solution at 120° F., time 60 min) was 58.65%. For the same molecule, the “Relative Amylase Enzyme Activity” value (All Ash formula, phosphonate 0.3 wt-%, use solution at 120° F., time 90 min) was 54.03%, the “Relative Amylase Enzyme Activity” value (All Ash formula, phosphonate 0.3 wt-%, use solution at 120° F., time 120 min) was 45.38% and the “Relative Amylase Enzyme Activity” value (All Ash formula, phosphonate 0.3 wt-%, use solution at 120° F., time 150 min) was 44.40%. The “Relative Amylase Enzyme Activity” value (All Ash formula, phosphonate 0.3 wt-%, use solution at 120° F., time 180 min) was 41.15%, the “Relative Amylase Enzyme Activity” value (All Ash formula, phosphonate 0.3 wt-%, use solution at 120° F., time 210 min) was 41.56% and the “Relative Amylase Enzyme Activity” value (All Ash formula, phosphonate 0.3 wt-%, use solution at 120° F., time 240 min) was 40.40%. The “Relative Amylase Enzyme Activity” value [1] was 100.00%, the “Relative Amylase Enzyme Activity” value [2] was 96.90% and the “Relative Amylase Enzyme Activity” value [3] was 94.03%. The “Relative Amylase Enzyme Activity” value [4] was 86.69%, the “Relative Amylase Enzyme Activity” value [5] was 83.68% and the “Relative Amylase Enzyme Activity” value [6] was 86.51%. For the same molecule, the “Relative Amylase Enzyme Activity” value [7] was 84.89%, the “Relative Amylase Enzyme Activity” value [8] was 85.85% and the “Relative Amylase Enzyme Activity” value [9] was 76.25%. For the same molecule, the “Relative Amylase Enzyme Activity” value [10] was 81.01%, the “Relative Amylase Enzyme Activity” value [11] was 81.99% and the “Relative Amylase Enzyme Activity” value [12] was 81.88%. The “Relative Amylase Enzyme Activity” value [13] was 100.00%, the “Relative Amylase Enzyme Activity” value [14] was 107.86% and the “Relative Amylase Enzyme Activity” value [15] was 111.05%. The “Relative Amylase Enzyme Activity” value [16] was 106.52%, the “Relative Amylase Enzyme Activity” value [17] was 73.11% and the “Relative Amylase Enzyme Activity” value [18] was 79.10%. The “Relative Amylase Enzyme Activity” value [19] was 71.11%, the “Relative Amylase Enzyme Activity” value [20] was 64.98% and the “Relative Amylase Enzyme Activity” value [21] was 74.97%. For the same molecule, the “Relative Amylase Enzyme Activity” value [22] was 85.22%, the “Relative Amylase Enzyme Activity” value [23] was 94.67% and the “Relative Amylase Enzyme Activity” value [24] was 97.07%. For the same molecule, the “Relative Amylase Enzyme Activity” value [25] was 90.07%, the “Relative Amylase Enzyme Activity” value [26] was 100.00% and the “Relative Amylase Enzyme Activity” value [27] was 98.00%. For the same molecule, the “Relative Amylase Enzyme Activity” value [28] was 89.44%, the “Relative Amylase Enzyme Activity” value [29] was 90.60% and the “Relative Amylase Enzyme Activity” value [30] was 86.05%. The “Relative Amylase Enzyme Activity” value [31] was 90.47%, the “Relative Amylase Enzyme Activity” value [32] was 89.11% and the “Relative Amylase Enzyme Activity” value [33] was 88.36%. For the same molecule, the “Relative Amylase Enzyme Activity” value [34] was 82.80%, the “Relative Amylase Enzyme Activity” value [35] was 84.45% and the “Relative Amylase Enzyme Activity” value [36] was 91.39%.
